Measurements: ChEMBL document CHEMBL1201862, “PubChem BioAssay data set” (2004)
Calls of active or inactive are those of the source.

How the values were obtained:
[1] = luciferase reporter signal suppression in cells – H4 neuroglioma cells, luminescence, dose response (AID 1990); type: functional, cell-based
[2] = Luminescence Cell-Based Dose Response HTS to Identify Inhibitors of 5'UTR Stem-Loop Driven Prion Protein mRNA Translation in H4 Neuroglioblastoma Cells. [Related pubchem assays: 1827 (Project Summary), 1813 (Primary HTS)]; type: functional
[3] = alpha-synuclein stem-loop luciferase translation blockers – H4 neuroglioma cells, luminescence, confirmation (AID 1988); type: functional, cell-based
[4] = molecular target: FAD-linked sulfhydryl oxidase ALR (Homo sapiens, UniProt P55789); assay: ALR-catalysed DTT oxidation blockers – biochemical, H2O2 detection, luminescence, cherry-pick, dose response (AID 493248)
[5] = molecular target: T1, Heat shock factor protein 1 (Mus musculus, UniProt P38532); assay: enhancement of HSF1-driven luciferase signal – cell-based, NIH3T3, luminescence, dose retest, confirmation (AID 435004); type: functional;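 further: stress induced by proteasome inhibitor MG132 added 30 min after compound; luciferase reporter driven by HSF1 response element in NIH3T3 cells; actives raise luminescence as potentiators of the MG132 stress response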
T1 sequence (P38532 whole entry): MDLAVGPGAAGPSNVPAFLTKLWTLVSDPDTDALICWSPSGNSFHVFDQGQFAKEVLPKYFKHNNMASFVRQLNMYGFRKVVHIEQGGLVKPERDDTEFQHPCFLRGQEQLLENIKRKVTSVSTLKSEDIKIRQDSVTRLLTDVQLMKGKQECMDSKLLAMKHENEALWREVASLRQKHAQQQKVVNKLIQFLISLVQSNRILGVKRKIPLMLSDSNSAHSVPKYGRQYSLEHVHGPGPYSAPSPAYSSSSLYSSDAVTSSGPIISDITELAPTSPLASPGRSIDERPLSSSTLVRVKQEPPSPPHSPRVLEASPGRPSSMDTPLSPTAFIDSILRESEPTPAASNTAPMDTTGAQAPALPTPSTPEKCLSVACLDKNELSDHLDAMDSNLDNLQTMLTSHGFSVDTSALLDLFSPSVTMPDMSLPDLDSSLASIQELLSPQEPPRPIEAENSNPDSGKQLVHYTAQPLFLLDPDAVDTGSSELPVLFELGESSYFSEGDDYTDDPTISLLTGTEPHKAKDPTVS

[6] = Luminescence Cell-Based Dose Confirmation HTS to Identify Activators of 5'UTR Stem-Loop Driven Alpha-Synuclein mRNA Translation in H4 Neuroglioblastoma Cells. [Related pubchem assays: 1829 (Project Summary), 1814 (Primary HTS)]; type: functional
[7] = Luminescence Cell-Based Dose Response HTS to Identify Activators of Luciferase Translation or Activity in H4 […] Cells. [Related pubchem assays: 1829 (Project Summary), 1814 (Primary HTS)]; type: functional
[8] = test system: H4; assay: Luminescence Cell-Based Dose Response HTS to Identify Activators of 5'UTR Stem-Loop Driven Prion Protein mRNA Translation in H4 Neuroglioblastoma Cells. [Related pubchem assays: 1829 (Project Summary), 1814 (Primary HTS)]; type: functional; details: Homo sapiens
[9] = Trypanosoma cruzi growth suppression in host cells – NIH3T3 host cells, beta-gal luminescence, confirmation (AID 2044); type: functional, cell-based;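 further: intracellular parasites grown in NIH/3T3 mouse fibroblasts as host cells; luminescent beta-galactosidase reporter signal from transgenic T. cruzi replicating inside host cells; inhibitors lower the luminescence signal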
[10] = NIH3T3 cell viability loss – ATP luminescence, mouse fibroblasts, counter-screen, dose response (AID 2010); type: functional, cell-based;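 further: cells exposed to compound for about 90 hours before reading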
[11] = molecular target: Cytochrome P450 2D6 (Homo sapiens, UniProt P10635);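 further: CYP2D6 member of a cytochrome P450 panel assay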
[12] = test system: BJ; assay: BJ-TERT fibroblast viability loss – cell-based, RAS-independent, luminescence, dose response (AID 1933); type: functional; details: Homo sapiens
[13] = test system: BJ; assay: cells; type: functional, cell-based; details: Homo sapiens
[14] = test system: BJ; assay: BJ-TERT-LT-ST fibroblast viability loss – cell-based, RAS-independent, luminescence, dose response (AID 1935); type: functional; details: Homo sapiens;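 further: BJ fibroblasts immortalized with TERT plus LT and ST oncogenes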
[15] = DRD fibroblast viability loss – cell-based, non-viral oncogenic, luminescence, dose response (AID 1934); type: functional; details: Homo sapiens
[16] = Luminescence Cell-Based Dose Retest to Confirm Inhibitors of Cancer Stem Cells. [Related pubchem assays (depositor defined):AID2717, AID2721]; type: functional; details: Homo sapiens
[17] = test system: Streptococcus sp. 'group A'; assay: Streptococcus pyogenes SK(-)GAS viability under kanamycin – luminescence, BacTiterGlo, confirmation, counter-screen for streptokinase expression inhibitor project, dose response (AID 1900); type: functional, organism-based
[18] = test system: Streptococcus; assay: GAS UMAA2166 growth inhibition – luminescence, BacTiterGlo, counter-screen for streptokinase expression inhibitor project, dose response (AID 1915); type: functional, organism-based;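 further: potency for reduction of bacterial viability or growth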
[19] = test system: INS1; assay: INS-1E survival protection against cytokine death – cell-based, luminescence, retest, dose response (AID 449756); type: functional; details: Rattus norvegicus;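 further: cell death triggered by IL-1 beta plus TNF-alpha plus IFN-gamma mixture; protective hits raise ATP signal compared with cytokine alone wells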
[20] = molecular target: Paired box protein Pax-8 (Homo sapiens, UniProt Q06710); assay: PAX8 transcriptional activity inhibition in RMG-I – RMG-I cells, luciferase, cherry-pick, dose response (AID 687027); type: functional, cell-based;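 further: luciferase reporter driven by Pax8 target thyroperoxidase promoter measured by SteadyGlo luminescence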
[21] = molecular target: Cytochrome P450 2C19 (Homo sapiens, UniProt P33261); assay: Cytochrome panel assay with activity outcomes. Panel member name: p450-cyp2c19 Compounds with AC50 equal or less than 10 uM are considered active; type: functional; details: read-out: AC50
Cytochrome P450 2C19, sequence (P33261 whole entry): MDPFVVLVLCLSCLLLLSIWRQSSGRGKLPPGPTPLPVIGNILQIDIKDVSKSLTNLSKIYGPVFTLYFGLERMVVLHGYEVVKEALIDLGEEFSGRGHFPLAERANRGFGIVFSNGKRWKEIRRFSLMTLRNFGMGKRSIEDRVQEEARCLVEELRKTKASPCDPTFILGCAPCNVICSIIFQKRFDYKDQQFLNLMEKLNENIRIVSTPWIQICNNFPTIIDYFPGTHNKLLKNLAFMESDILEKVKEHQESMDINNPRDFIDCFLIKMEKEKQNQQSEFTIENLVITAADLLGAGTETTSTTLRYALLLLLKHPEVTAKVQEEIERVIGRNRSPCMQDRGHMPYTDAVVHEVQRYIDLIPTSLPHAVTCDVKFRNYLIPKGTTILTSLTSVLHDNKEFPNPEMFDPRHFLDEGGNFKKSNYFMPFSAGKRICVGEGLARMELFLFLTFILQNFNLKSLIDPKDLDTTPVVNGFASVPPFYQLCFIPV

FAD-linked sulfhydryl oxidase ALR, sequence (P55789 whole entry): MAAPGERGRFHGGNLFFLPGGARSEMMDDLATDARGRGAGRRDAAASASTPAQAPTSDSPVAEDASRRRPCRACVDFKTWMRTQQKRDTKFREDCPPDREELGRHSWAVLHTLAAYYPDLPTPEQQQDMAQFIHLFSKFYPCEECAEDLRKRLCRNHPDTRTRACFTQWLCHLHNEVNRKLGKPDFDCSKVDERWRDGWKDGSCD
Cytochrome P450 2D6, sequence (P10635 whole entry): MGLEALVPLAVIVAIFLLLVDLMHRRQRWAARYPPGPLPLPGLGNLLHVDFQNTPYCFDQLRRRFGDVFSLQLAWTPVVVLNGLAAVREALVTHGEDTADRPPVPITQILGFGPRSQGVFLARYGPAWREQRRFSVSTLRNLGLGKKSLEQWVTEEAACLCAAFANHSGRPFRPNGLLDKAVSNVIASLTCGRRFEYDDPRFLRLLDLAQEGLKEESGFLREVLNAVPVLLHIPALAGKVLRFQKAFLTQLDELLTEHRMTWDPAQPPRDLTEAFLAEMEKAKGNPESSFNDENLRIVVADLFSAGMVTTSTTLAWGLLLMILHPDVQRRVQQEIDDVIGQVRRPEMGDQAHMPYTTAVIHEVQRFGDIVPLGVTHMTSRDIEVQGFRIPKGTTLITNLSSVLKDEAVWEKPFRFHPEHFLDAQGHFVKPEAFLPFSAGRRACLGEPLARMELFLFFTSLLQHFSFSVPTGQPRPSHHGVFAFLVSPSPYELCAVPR
Paired box protein Pax-8, sequence (Q06710 whole entry): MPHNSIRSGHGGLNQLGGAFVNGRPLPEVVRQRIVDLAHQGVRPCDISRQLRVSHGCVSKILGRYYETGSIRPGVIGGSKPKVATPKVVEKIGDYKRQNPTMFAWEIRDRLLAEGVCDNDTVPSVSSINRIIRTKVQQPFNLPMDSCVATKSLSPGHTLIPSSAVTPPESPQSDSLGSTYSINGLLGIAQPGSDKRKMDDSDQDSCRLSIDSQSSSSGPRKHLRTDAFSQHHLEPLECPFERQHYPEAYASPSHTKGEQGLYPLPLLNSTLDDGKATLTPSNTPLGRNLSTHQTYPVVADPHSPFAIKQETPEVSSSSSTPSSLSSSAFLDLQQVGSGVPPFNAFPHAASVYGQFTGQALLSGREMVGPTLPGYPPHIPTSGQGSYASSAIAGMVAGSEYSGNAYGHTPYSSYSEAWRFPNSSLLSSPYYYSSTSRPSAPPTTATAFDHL

Compound: COc1ccccc1N1CCN(C(=O)Cn2nc(C(F)(F)F)c3c2CCC3)CC1
- EC50 [1]: > 120 µM (not active)
- EC50 [2]: > 120 µM (not active)
- EC50 [3]: > 120 µM (not active)

Compound: O=C(c1ccccc1F)N1CCN=C1SCc1cccnc1
- AC50 [4]: 0.552 µM (active)

Compound: CN(C)S(=O)(=O)Oc1ccsc1C(=O)Nc1ccccc1Cl
- EC50 [1]: > 120 µM (not active)
- EC50 [2]: > 120 µM (not active)
- EC50 [3]: 15.7 µM (active)

Compound: CC1(C)CN(c2cccc(Br)c2)C1=O
- EC50 [5]: > 260 µM (inactive)

Compound: CC(Sc1nnc2ccccn12)C(N)=O (centres undefined)
- EC50 [5]: > 260 µM (inactive)

Compound: Cc1ccc(NCC(=O)N=Nc2c(O)[nH]c3ccc([N+](=O)[O-])cc23)cc1
- EC50 [6]: 24.6 µM (active)
- EC50 [7]: 0.255 µM (active)
- EC50 [8]: 0.303 µM (active)

Compound: CC(Oc1ccc(F)cc1Br)c1nc(O)c2ccccc2n1 (centres undefined)
- EC50 [5]: 74.4 µM (active)

Compound: Cc1ccccc1NCCC(=O)Nc1ccc(Cl)cc1
- AC50 [4]: 4.88 µM (active)

Compound: CC(=O)Nc1ccccc1OC(C)C(=O)N1CC(C)CC(C)C1 (centres undefined)
- EC50 [5]: > 260 µM (inactive)

Compound: CCO/C(O)=C1\C(C)=Nc2sc(C(=O)c3ccc(C)cc3)c(N)c2C1c1ccc(C(=O)OC)cc1 (centres undefined)
- EC50 [1]: > 120 µM (not active)
- EC50 [2]: > 120 µM (not active)
- EC50 [3]: > 120 µM (not active)

Compound: COc1ccc(F)cc1S(=O)(=O)Nc1ccc2c(c1)OCO2
- EC50 [5]: > 260 µM (inactive)

Compound: Cc1sc2c(c1C)CN(CCN1CCOCC1)CN2C(=O)c1ccccc1
- EC50 [6]: 19.9 µM (active)
- EC50 [7]: 13.7 µM (active)
- EC50 [8]: > 120 µM (not active)

Compound: CC(=O)Nc1ccc(NC2CCCCC2NS(=O)(=O)c2ccccc2)cc1 (centres undefined)
- AC50 [4]: 0.736 µM (active)

Compound: CCCCN1C(=O)/C(=C/c2c[nH]nc2-c2ccccc2)SC1=S
- EC50 [5]: > 260 µM (inactive)

Compound: O=C(CC1Sc2ccccc2NC1=O)c1ccc(Br)cc1 (centres undefined)
- EC50 [6]: 5.6 µM (active)
- EC50 [7]: 7.15 µM (active)
- EC50 [8]: 36.6 µM (active)

Compound: Cc1ccc(C(=O)O/N=C(\N)Cc2cccc3ccccc23)cc1
- EC50 [5]: > 260 µM (inactive)

Compound: O=C(NCc1csc(-c2ccccc2)n1)c1cc(F)cc2c1OCOC2
- EC50 [6]: 14.9 µM (active)
- EC50 [7]: 13.1 µM (active)
- EC50 [8]: 15.5 µM (active)

Compound: C/C(=N\OC(=O)NC1CCCCC1)c1sc(-c2ccccc2)nc1C
- EC50 [6]: 22 µM (active)
- EC50 [7]: 0.673 µM (active)
- EC50 [8]: > 120 µM (inconclusive)
- EC50 [9]: 2.05 µM (active)
- EC50 [10]: > 60 µM (not active)
- AC50 [11]: 28.2 µM (inconclusive)

Compound: CC(Oc1cccc(Cl)c1)C(=O)Nc1ccc([N+](=O)[O-])cn1 (centres undefined)
- EC50 [1]: 21.4 µM (active)
- EC50 [2]: > 120 µM (not active)
- EC50 [3]: 59.8 µM (active)

Compound: Nc1ccccc1Sc1c[nH]c2ccccc12
- AC50 [4]: 24.5 µM (active)

Compound: COc1ccc(S(=O)(=O)Cc2ccc(C(=O)N3CCN(c4cccc(C)c4C)CC3)o2)cc1
- EC50 [12]: > 150 µM (not active)
- EC50 [13]: > 150 µM (not active)
- EC50 [14]: > 75 µM (inconclusive)
- EC50 [15]: 20.4 µM (active)

Compound: CCC(C)n1ncn(-c2ccc(N3CCN(c4ccc(O)cc4)CC3)cc2)c1=O (centres undefined)
- EC50 [1]: > 120 µM (not active)
- EC50 [2]: 19.7 µM (active)
- AC50 [16]: 1.2 µM (active)

Compound: O=C(COc1ccccc1-c1ccccc1)N/N=C/c1ccc2ccccc2c1
- EC50 [17]: 4.87 µM (active)
- EC50 [12]: 0.364 µM (active)
- EC50 [13]: 0.568 µM (active)
- EC50 [14]: 0.472 µM (active)
- EC50 [15]: 0.475 µM (active)
- EC50 [18]: 2.41 µM (active)
- AC50 [16]: 0.258 µM (active)
- AC50 [19]: 9.14 µM (active)
- AC50 [20]: 2.1 µM (active)

Compound: Cc1ccc(C(=O)c2cc([N+](=O)[O-])ccc2N2CC(C)OC(C)C2)cc1 (centres undefined)
- EC50 [12]: 13.8 µM (active)
- EC50 [13]: 31.6 µM (active)
- EC50 [14]: 16.7 µM (active)
- EC50 [15]: 12.5 µM (active)

Compound: c1ccc(CCc2nc(-c3ccccc3)no2)cc1
- EC50 [6]: 56.8 µM (active)
- EC50 [7]: 51.8 µM (active)
- EC50 [8]: 6.54 µM (active)
- AC50 [21]: 0.501 µM (inconclusive)

Compound: CCC1CCCCN1C(=O)COC(=O)c1cc2ccccc2cc1O (centres undefined)
- EC50 [5]: > 260 µM (inactive)

Compound: Cc1cccc(C(=O)NNC(=O)c2ccc(Cl)cc2)c1O
- EC50 [6]: 23.3 µM (active)
- EC50 [7]: 7.11 µM (active)
- EC50 [8]: 98.9 µM (active)

Compound: COc1cnn(-c2cc(Oc3ccc(C)cc3)ncn2)c(=O)c1Cl
- EC50 [5]: > 260 µM (inactive)

Compound: Cc1ccc2c(c1)C(N1CCCC1=O)CC(c1ccco1)N2 (centres undefined)
- EC50 [6]: 14.6 µM (active)
- EC50 [7]: 16.1 µM (active)
- EC50 [8]: > 120 µM (not active)

Compound: O=C(CC1C=Cc2ccccc2N1C(=O)c1ccccc1)c1ccccc1 (centres undefined)
- EC50 [5]: > 260 µM (inactive)

Compound: CC1Oc2ccccc2C=C1/C=C1/SC(N2CCOCC2)=NC1=O (centres undefined)
- EC50 [6]: 7.43 µM (active)
- EC50 [7]: 37.3 µM (active)
- EC50 [8]: 10.9 µM (active)

Compound: Cc1cc(NC(=O)c2cccc(Br)c2)[nH]n1
- EC50 [6]: 2.47 µM (active)
- EC50 [7]: 54.5 µM (active)

Compound: COc1cccc2cc(/C(=N/O)c3ccc(Br)cc3)oc12
- EC50 [1]: 14.6 µM (active)
- EC50 [2]: 18.6 µM (active)
- EC50 [3]: 12.8 µM (active)

Compound: O=C(COC(=O)/C=C/c1ccc(Br)o1)NCCCN1CCCC1=O
- EC50 [5]: > 260 µM (inactive)

Compound: Cc1nc2ccccc2c(=O)n1CCc1ccc(O)cc1
- AC50 [4]: 3.66 µM (active)

Compound: CCOC(=O)C1(Cc2cccc(OC)c2)CCCN(C(=O)CCc2cccnc2)C1 (centres undefined)
- EC50 [6]: 15.2 µM (active)
- EC50 [7]: 12.6 µM (active)
- EC50 [8]: > 120 µM (not active)

Compound: O=C(c1cccc(F)c1)N1CCN=C1SCc1cccnc1
- AC50 [4]: 0.123 µM (active)

Compound: Cc1cc(C(=O)C(=O)O)c(C)n1-c1ccc(Cl)c(Cl)c1
- AC50 [4]: 1.39 µM (active)

Compound: N/C(=C\C(=O)c1cc(Cl)ccc1O)C(Cl)(Cl)Cl
- EC50 [12]: 3.92 µM (active)
- EC50 [13]: 5.09 µM (active)
- EC50 [14]: 7.09 µM (active)
- EC50 [15]: 5.12 µM (active)

Compound: Cc1ccc(S(=O)(=O)NC(=O)Nc2ccc(C)cn2)cc1
- EC50 [5]: > 260 µM (inactive)
